For three molecules, MIC and ED50 results are on record in patent US4148996A, “3,7-Disubstituted cephalosporins” (Societa Farmaceutici Italia S.p.A., priority 1976, dated 1979).

SMILES strings stand for the structures. In brackets after ≈: the same amount, converted by molar mass. Where two headings read alike, the source gives them in different places.

The test system of one experiment is S.aureus. Nature of the experiment: in vitro MIC by serial dilution, S.aureus. It counts as cell-based, Staphylococcus aureus. Particulars: Staphylococcus aureus; S.aureus; serial dilutions in Penassay Seed Broth Difco, 10^4 bacteria/ml; read-out: MIC (minimal inhibitory concentration). How it is done:
(§1) A series of comparative tests was carried out in vitro with the method of serial dilutions in Penassay Seed Broth Difco inoculated with 10^4 bacteria/ml (overnight cultures).
(§2) Table 1 below reports the results of the above assays as MIC (minimal inhibitory concentration, mcg/ml).

Another experiment has as its system S.pyogenes. Description: in vitro MIC by serial dilution, S.pyogenes. It counts as cell-based. The following applies: Streptococcus pyogenes, read-out: MIC (minimal inhibitory concentration). As to the method:
as §1, §2

The next experiment has as its system E.coli B. Description: in vitro MIC by serial dilution, E.coli B. The class given is cell-based. Particulars: Escherichia coli; E.coli B; serial dilutions in Penassay Seed Broth Difco, 10^4 bacteria/ml; read-out: MIC (minimal inhibitory concentration). How it is done: as §1, §2
For a further experiment, the system named is K.pneumoniae. Description: in vitro MIC by serial dilution, K.pneumoniae. The class given is cell-based. Particulars: Klebsiella pneumoniae, read-out: MIC (minimal inhibitory concentration). How it is done:
as §1, §2

The test system of another experiment is S.flexneri. Nature of the experiment: in vitro MIC by serial dilution, S.flexneri. The following applies: Shigella flexneri; S.flexneri; serial dilutions in Penassay Seed Broth Difco, 10^4 bacteria/ml; read-out: MIC (minimal inhibitory concentration). It counts as cell-based. As to the method:
as §1, §2

The subject of a further experiment is P.mirabilis. Description: in vitro MIC by serial dilution, P.mirabilis. It counts as cell-based. Particulars: Proteus mirabilis, read-out: MIC (minimal inhibitory concentration). As to the method: as §1, §2
A further experiment concerns S.abortivoequina. Nature of the experiment: in vitro MIC by serial dilution, S.abortivoequina. The class given is cell-based. The following applies: Salmonella, read-out: MIC (minimal inhibitory concentration). How it is done:
as §1, §2

For the next experiment, the system named is S.typhimurium. Nature of the experiment: in vitro MIC by serial dilution, S.typhimurium. The class given is cell-based. Particulars: Salmonella enterica, read-out: MIC (minimal inhibitory concentration). How it is done:
as §1, §2

Another experiment deals with Staphylococcus aureus. Nature of the experiment: in vivo therapeutic activity on mice experimentally infected with Staphylococcus aureus. Details: species or system male Swiss Cobs albino mice. The following applies: Staphylococcus aureus, sc, 168 h, Table 2, 2 LD50/mouse i.p., subcutaneous treatment 4 h after infection, 7 days, read-out: ED50 (dose effective in curing 50% of the infected mice). As to the method: (§3) In vivo tests for therapeutic activity were carried out on mice experimentally infected with Staphylococcus aureus and Salmonella abortivoequina (Infective dose: 2 LD50 /mouse i.p.); groups of 6 male Swiss Cobs albino mice were used. The infected animals were treated by the subcutaneous route 4 h after infection. The mortality rate was recorded every day for 7 days. The activity was assessed as ED50 (Dose effective in curing 50% of the infected mice as mg/Kg--see Reed and Muench, Am. J. Hyg. 27, 493, 1938.)

Experiment [1] relates to Salmonella abortivoequina. Nature of the experiment: in vivo therapeutic activity on mice experimentally infected with Salmonella abortivoequina. On the set-up: species or system male Swiss Cobs albino mice. Particulars: sc, 168 h. As to the method: as §3
[2] abbreviates: S.pyogenes, serial dilutions in Penassay Seed Broth Difco, 10^4 bacteria/ml.
Where [3] appears, read: K.pneumoniae, serial dilutions in Penassay Seed Broth Difco, 10^4 bacteria/ml.
Where [4] appears, read: P.mirabilis, serial dilutions in Penassay Seed Broth Difco, 10^4 bacteria/ml.
Setting [5] is: S.abortivoequina, serial dilutions in Penassay Seed Broth Difco, 10^4 bacteria/ml.
Setting [6] is: S.typhimurium, serial dilutions in Penassay Seed Broth Difco, 10^4 bacteria/ml.
Setting [7] is: mice infected with Salmonella abortivo equina, subcutaneous 4 h after infection, read-out: ED50.

As a reminder, the ED50 is the dose at which the effect has come halfway, by size or by number of responders. As for `COc1cncc(SCC2=C(C(=O)O)N3C(=O)C(NC(=O)Cc4cccs4)C3SC2)n1` (stereo not drawn) [Compound 321, 7-(2-Thienyl)-acetamido-3-(6-methoxypyrazin-2-ylthiomethyl)-3-cephem-4-carboxylic acid], the MIC in the experiment on S.aureus came to 0.037 µg/mL (≈ 0.0773 µM); in the experiment with S.pyogenes (setting [2]) it was 0.12 µg/mL (≈ 0.251 µM); with E.coli B, 1.25 µg/mL (≈ 2.61 µM); in the experiment on K.pneumoniae (setting [3]), 0.25 µg/mL (≈ 0.522 µM); in the experiment on S.flexneri it was 10 µg/mL (≈ 20.9 µM); with P.mirabilis (setting [4]), 10 µg/mL (≈ 20.9 µM). Also, the MIC in the experiment with S.abortivoequina (setting [5]) and with S.typhimurium (setting [6]) was 20 µg/mL (≈ 41.8 µM) each time. Also, the ED50 with Staphylococcus aureus amounted to 15 mg/kg; in experiment [1] (setting [7]) it was 50 mg/kg.
For the molecule `CC(=O)OCC1=C(C(=O)O)N2C(=O)[C@@H](NC(=O)Cc3cccs3)[C@H]2SC1` [cephalothin, reference compound], the MIC in the experiment on S.aureus was determined as 0.1 µg/mL (≈ 0.252 µM); with S.pyogenes, 1.25 µg/mL (≈ 3.15 µM); with E.coli B, 1.25 µg/mL (≈ 3.15 µM); in the experiment on K.pneumoniae it was 0.3 µg/mL (≈ 0.757 µM); in the experiment with S.flexneri, 1.5 µg/mL (≈ 3.78 µM); in the experiment with P.mirabilis it was 6.2 µg/mL (≈ 15.6 µM). Further, the MIC with S.abortivoequina is 1.5 µg/mL (≈ 3.78 µM); in the experiment with S.typhimurium (TYPHIMURIUM) it was 3 µg/mL (≈ 7.57 µM). Further, the values for the ED50 (in the experiment on Staphylococcus aureus; in [1] (Salmonella)) were 30 mg/kg and 50 mg/kg, respectively.
`Cc1nnc(SCC2=C(C(=O)O)N3C(=O)[C@@H](NC(=O)Cn4cnnn4)[C@H]3SC2)s1` [cephazolin, reference compound]: the MIC in the experiment on S.aureus amounted to 0.1 µg/mL (≈ 0.22 µM); in the experiment on S.pyogenes (setting [2]) it was 1.25 µg/mL (≈ 2.75 µM); in the experiment on E.coli B, 1.25 µg/mL (≈ 2.75 µM); in the experiment with K.pneumoniae (setting [3]), 0.6 µg/mL (≈ 1.32 µM); in the experiment on S.flexneri, 1.5 µg/mL (≈ 3.3 µM); in the experiment with P.mirabilis (setting [4]) it was 3.1 µg/mL (≈ 6.82 µM). The values for the MIC in the experiment with S.abortivoequina (setting [5]) and with S.typhimurium (setting [6]) were 1.25 µg/mL (≈ 2.75 µM) and 1.5 µg/mL (≈ 3.3 µM), respectively. Moreover, the 50% effective dose (ED50) in the experiment on Staphylococcus aureus is 30 mg/kg; in experiment [1] (setting [7]), 25 mg/kg.
